From ChEMBL document CHEMBL1158137, “Absolute configuration of sporotricale and structure of 6-hydroxysporotricale” (J Nat Prod, 2006)
Activity calls are given as the source filed them. No cut-off for these calls is given here.

Legend:
[1] = organism: Gallus gallus; assay: Antiangiogenic activity against bFGF-induced angiogenesis in chick embryo chorioallantoic membrane; assay type: functional, tissue-based
[2] = test system: BMEC; assay: Cytotoxicity against bovine microvascular endothelial cells; assay type: cell-based, Bos taurus; settings: cattle

SMILES | Activity [1] | Activity [2]
COc1cc(O)c(O)c2c1C(=O)O[C@@H]2CCCCCCCCCC1(O)CC[C@@H](C)O1 (stereo partly specified) | Active | Non-toxic
COc1cc(O)cc2c1C(=O)O[C@@H]2CCCCCCCCCC1(O)CC[C@@H](C)O1 (stereo partly specified) | Active | Non-toxic
COc1cc(O)cc2c1C(=O)O[C@@H]2CCCCC[C@@H]1CCC[C@]2(CC[C@@H](C)O2)O1 | Active | Non-toxic
